Patent publication US7223781B2 (Beiersdorf AG, priority 2001, dated 2007)
Where two headings read alike, the source gives them in different places.

Experiments:
COX-1 = target: T1, COX-1 (Sus scrofa, UniProt A0A287ANF9); test: In-vitro test for COX-1 inhibition: fluorimetric quantification of malonaldehyde (MDA) in A23187-activated pig platelet suspension; type: cell-based
T1 construct: A platelet suspension obtained from pig's blood is preincubated with the test substance; endogenous in cells; host or cells: platelets from pig's blood
T1 sequence (A0A287ANF9 25-600): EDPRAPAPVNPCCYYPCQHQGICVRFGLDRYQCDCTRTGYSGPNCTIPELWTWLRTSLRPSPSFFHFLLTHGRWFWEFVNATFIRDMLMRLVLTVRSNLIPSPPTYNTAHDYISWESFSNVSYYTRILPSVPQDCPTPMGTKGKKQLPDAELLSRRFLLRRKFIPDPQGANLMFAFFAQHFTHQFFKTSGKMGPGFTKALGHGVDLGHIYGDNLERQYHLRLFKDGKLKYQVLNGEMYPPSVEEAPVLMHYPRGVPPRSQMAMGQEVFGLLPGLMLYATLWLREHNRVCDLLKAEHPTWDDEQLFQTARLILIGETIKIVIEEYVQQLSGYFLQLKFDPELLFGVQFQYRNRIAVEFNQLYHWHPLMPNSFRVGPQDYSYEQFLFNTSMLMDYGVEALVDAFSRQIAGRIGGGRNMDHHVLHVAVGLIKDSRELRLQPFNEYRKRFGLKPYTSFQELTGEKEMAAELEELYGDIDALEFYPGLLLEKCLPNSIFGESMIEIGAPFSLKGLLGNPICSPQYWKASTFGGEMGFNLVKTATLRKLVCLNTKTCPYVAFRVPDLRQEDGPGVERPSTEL
Method: In-vitro Test Procedure for the Determination of COX-1 Inhibition
The inhibition of the cyclooxygenase pathway is carried out by fluorimetric quantification of malonaldehyde (MA). This condenses in the acidic medium with twice the molar amount of thiobarbituric acid to give a red pigment dye, which has a fluorescence at λExcitation: 533 nm, λEmission: 550 nm.
A platelet suspension obtained from pig's blood is preincubated with the test substance for 10 min at 37° C. The concentration of the suspension should be 8×10^8 cells/ml. The arachidonic acid cascade is then activated by addition of the antibiotic calcium ionophore A23187 ([…]). After a further 10 min at 37° C., the reaction is stopped using a trichloroacetic acid solution. The samples are centrifuged and the supernatant is incubated with thiobarbituric acid for 30 min at 70° C. After cooling (30 min at room temperature), the samples are measured fluorimetrically at 533/550 nm and the IC50 values of the test compounds are determined therefrom by means of a calibration curve.

COX-2 = target: T2, COX-2 (Homo sapiens, UniProt P35354); test: In-vitro test for COX-2 inhibition: PGE2 ELISA in LPS-stimulated human monocytes; type: cell-based; details: for IC50: Table 18, LPS-stimulated human monocytes, PGE2
T2 construct: endogenous in cells; host or cells: LPS-stimulated human monocytes (Ficoll extraction)
T2 sequence (P35354 18-604): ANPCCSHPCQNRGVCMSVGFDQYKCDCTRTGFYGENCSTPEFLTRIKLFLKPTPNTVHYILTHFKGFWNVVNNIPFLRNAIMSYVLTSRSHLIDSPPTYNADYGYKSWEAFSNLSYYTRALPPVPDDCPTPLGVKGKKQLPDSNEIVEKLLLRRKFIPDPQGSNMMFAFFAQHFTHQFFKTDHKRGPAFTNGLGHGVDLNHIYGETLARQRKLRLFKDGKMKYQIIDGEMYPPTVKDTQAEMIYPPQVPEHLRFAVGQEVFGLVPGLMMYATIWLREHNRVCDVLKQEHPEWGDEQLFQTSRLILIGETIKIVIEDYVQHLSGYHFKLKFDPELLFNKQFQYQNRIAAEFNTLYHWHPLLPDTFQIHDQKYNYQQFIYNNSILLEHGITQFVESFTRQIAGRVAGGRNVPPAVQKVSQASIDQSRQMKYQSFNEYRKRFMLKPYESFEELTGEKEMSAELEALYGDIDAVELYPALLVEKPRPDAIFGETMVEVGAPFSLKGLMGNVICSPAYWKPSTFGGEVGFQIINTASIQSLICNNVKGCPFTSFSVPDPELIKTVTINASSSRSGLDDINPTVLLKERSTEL
Method: In-vitro Test Procedure for the Determination of COX-2 Inhibition
The procedure is carried out on LPS-stimulated human monocytes which have been obtained by Ficoll extraction. The measurement variable used is the PGE2 formed, which is determined by means of ELISA.

[1] = Table 1, carbamic acid thioesters, pig platelets, read-out: MDA IC50
[2] = tables 1 to 17, read-out: IC50 values (inhibition of cyclooxygenase-1)
[3] = read-out: COX-2 inhibition pIC50 (converted)
[4] = Table 2, sulfanylacetamides, pig platelets, read-out: MDA pIC50 (converted)
[5] = Table 15, N,N-acetamides, pig platelets, read-out: MDA pIC50 (converted)
[6] = read-out: COX-2 inhibition IC50
[7] = Table 8, arylsulfonamides, pig platelets, read-out: MDA pIC50 (converted)
[8] = Table 9, alkylamides, pig platelets, read-out: MDA pIC50 (converted)
[9] = Table 5, heteroarylmethyl sulfides, pig platelets, read-out: MDA pIC50 (converted)
[10] = Table 7, arylamides, pig platelets, read-out: MDA IC50
[11] = Table 7, arylamides, pig platelets, read-out: MDA pIC50 (converted)
[12] = Table 1, carbamic acid thioesters, pig platelets, read-out: MDA pIC50 (converted)

CCN(CC)C(=O)Sc1nc(-c2ccc(OC)cc2)c(-c2ccc(OC)cc2)[nH]1 [Compound T2, [4,5-Bis(4-methoxyphenyl)-1H-imidazol-2-yl]-N,N-diethylcarbamic acid thioester]
IC50 (COX-1; [1]): 0.0048 µM
IC50 (COX-1; [2]): ~0.001 µM
IC50 (COX-2; [3]): 2.4 µM

COc1ccc(-c2nc(SCC(=O)N(C)C)[nH]c2-c2ccc(OC)cc2)cc1 [Compound T6, N^1N^1-Dimethyl-2-[4,5-bis(4-methoxyphenyl)-1H-imidazol-2-ylsulfanyl]-acetamide]
IC50 (COX-1; [4]): 0.01 µM
IC50 (COX-1; [5]): 0.01 µM
IC50 (COX-2; [3]): 2.29 µM

COc1ccc(-c2nc(SC(C(C)=O)C(=O)N(C)C)[nH]c2-c2ccc(OC)cc2)cc1 (stereo not drawn) [Compound T7, N^1,N^1-Dimethyl-2-[4,5-bis(4-methoxyphenyl)-1H-imidazol-2-ylsufanyl]-3-oxobutanamide]
IC50 (COX-1; [4]): 0.0331 µM
IC50 (COX-2; [6]): 0.5 µM

COc1ccc(-c2nc(SCC(=O)c3ccccc3)[nH]c2-c2ccc(OC)cc2)cc1 [Compound T11, 2-[4,5-Bis(4-methoxyphenyl)-1H-imidazol-2-ylsulfanyl]-1-phenylethan-1-one]
IC50 (COX-1; Table 4, aryl ketones, pig platelets, read-out: MDA IC50): 0.0095 µM
IC50 (COX-1; [2]): ~0.001 µM
IC50 (COX-2; [3]): 0.257 µM

COc1ccc(-c2nc(SCCNS(=O)(=O)c3ccc(Cl)cc3)[nH]c2-c2ccc(OC)cc2)cc1 [Compound T18, N-hu 1-{2-[4,5-Bis(4-methoxyphenyl)-1H-imidazol-2-ylsufanyl]ethyl}-4-chlorobenzenesulfonamide]
IC50 (COX-1; [7]): 0.282 µM
IC50 (COX-2; [3]): 3.02 µM

COc1ccc(-c2nc(SCCNS(=O)(=O)c3cc(C(F)(F)F)cc(C(F)(F)F)c3)[nH]c2-c2ccc(OC)cc2)cc1 [Compound T22, N^1-{2-[4,5-Bis(4-methoxyphenyl)-1H-imidazol-2-ylsufanyl]ethyl}-3,5-bis-(trifluoromethyl)benzenesulfonamide]
IC50 (COX-1; [7]): 0.407 µM
IC50 (COX-2; [3]): 1.51 µM

COc1ccc(-c2nc(SCCNS(=O)(=O)c3ccc(NC(C)=O)cc3)[nH]c2-c2ccc(OC)cc2)cc1 [Compound T27, N^1-(4-{2-[4,5-Bis(4-methoxyphenyl)-1H-imidazol-2-ylsufanyl]ethyl-sulfamoyl}phenyl)acetamide]
IC50 (COX-1; [7]): 0.0182 µM
IC50 (COX-2; [3]): 1.2 µM

COc1ccc(-c2nc(SCCN(C)C(=O)c3ccccc3)[nH]c2-c2ccc(OC)cc2)cc1 [Compound T29, N^1-{2-[4,5-Bis(4-methoxyphenyl)-1H-imidazol-2ylsulfanyl]ethyl}-N^1-1-methylbenzamide]
IC50 (COX-1; Table 17, methyl derivatives, pig platelets, read-out: MDA pIC50 (converted)): 0.0209 µM
inhibition of COX-1 (in words) (COX-1; comparison of both isoenzymes): approximately equally high potency
IC50 (COX-2; [3]): 0.01 µM
inhibition of COX-2 (in words) (COX-2; comparison of both isoenzymes): approximately equally high potency

COc1ccc(-c2nc(SCCN(C)C(=O)c3ccccc3)n(C)c2-c2ccc(OC)cc2)cc1 [Compound T31]
IC50 (COX-1; Table 16, dimethyl compounds, pig platelets, read-out: MDA pIC50 (converted)): 0.0832 µM
IC50 (COX-2; [6]): 0.91 µM

COc1ccc(-c2nc(SCCNC(C)=O)[nH]c2-c2ccc(OC)cc2)cc1 [Compound T49, N^1-{2-[4,5-Bis(4-methoxyphenyl)-1H-imidazol-2-ylsulfanyl]ethyl}acetamide]
IC50 (COX-1; [8]): 0.01 µM
IC50 (COX-2; [3]): 2.69 µM

COc1ccc(-c2nc(SCCNC(=O)N(C)C)[nH]c2-c2ccc(OC)cc2)cc1 [Compound T57, N^1-{2-[4,5-Bis(4-methoxyphenyl)-1H-imidazol-2-ylsulfanyl]ethyl}-N′,N′-dimethylurea]
IC50 (COX-1; Table 13, urea derivatives, pig platelets, read-out: MDA IC50): 0.078 µM
IC50 (COX-2; [3]): 0.209 µM

COc1ccc(-c2nc(SCc3ccccn3)[nH]c2-c2ccc(OC)cc2)cc1 [Compound T69, 2-[4,5-Bis(4-methoxyphenyl)-1H-imidazol-2-ylsulfanylmethyl]pyridine]
IC50 (COX-1; [9]): 0.1 µM
IC50 (COX-1; Table 14, sulfones and their sulfide analogs, pig platelets, read-out: MDA pIC50 (converted)): 0.1 µM
IC50 (COX-2; [3]): 0.24 µM

CCOC(=O)CS(=O)(=O)c1nc(-c2ccc(OC)cc2)c(-c2ccc(OC)cc2)[nH]1 [Compound T80, Ethyl 2-[4,5-bis(4-methoxyphenyl)-1H-imidazol-2-ylsulfonyl]acetate]
IC50 (COX-1; Table 14, sulfones and their sulfide analogs, pig platelets, read-out: MDA IC50): 0.0075 µM
IC50 (COX-1; [2]): ~0.001 µM

Clc1ccc(-c2nc(SCc3ccccn3)[nH]c2-c2ccc(Cl)cc2)cc1 [Compound T83, 2-[4,5-Bis(4-chlorophenyl)-1H-imidazol-2-ylsulfanylmethyl]pyridine]
IC50 (COX-1; [9]): 0.331 µM

CC(=O)NCCSc1nc(-c2ccc(Cl)cc2)c(-c2ccc(Cl)cc2)[nH]1 [Compound T84, N^1-{2-[4,5-Bis(4-chlorophenyl)-1H-imidazol-2-ylsufanyl]ethyl}acetamide]
IC50 (COX-1; [8]): 1.1 µM
IC50 (COX-2; [3]): 2.69 µM

O=C(NCCSc1nc(-c2ccc(Cl)cc2)c(-c2ccc(Cl)cc2)[nH]1)c1ccccc1 [Compound T85, N^1-{2-[4,5-Bis(4-chlorophenyl)-1H-imidazol-2-ylsufanyl]ethyl}benzamide]
IC50 (COX-1; [10]): 0.45 µM

CN(C)C(=O)CSc1nc(-c2ccc(Cl)cc2)c(-c2ccc(Cl)cc2)[nH]1 [Compound T87, N^1N^1-Dimethyl-2-[4,5-bis(4-chlorophenyl)-1H-imidazol-2-ylsulfanyl]-acetamide]
IC50 (COX-1; [5]): 1.51 µM

CC(Sc1nc(-c2ccc(Cl)cc2)c(-c2ccc(Cl)cc2)n1C)C(=O)N(C)C (stereo not drawn) [Compound T88, 2-[4,5-Bis(4-chlorophenyl)-1-methyl-1H-imidazol-2-ylsufanyl]-1-(di-methylamino)propan-1-one]
MDA pIC50 (COX-1; Table 15, N,N-acetamides, pig platelets): 5.28 M
IC50 (COX-1; Table 15, N,N-acetamides, pig platelets, read-out: MDA IC50): 5.2 µM

c1ccc(-c2nc(SCc3ccccn3)[nH]c2-c2ccccc2)cc1 [Compound T91, 2-[4,5-Diphenyl-1H-imidazol-2-ylsulfanylmethyl]pyridine]
IC50 (COX-1; Table 5, heteroarylmethyl sulfides, pig platelets, read-out: MDA IC50): 0.7 µM

O=C(NCCSc1nc(-c2ccccc2)c(-c2ccccc2)[nH]1)c1ccccc1 [Compound T94]
IC50 (COX-1; [11]): 2.09 µM

O=C(NCCSc1nc(-c2ccc(F)cc2)c(-c2ccc(F)cc2)[nH]1)c1ccccc1 [Compound T98, N^1-{2-[4,5-Bis(4-fluorophenyl)-1H-imidazol-2-ylsufanyl]ethyl}benzamide]
IC50 (COX-1; [11]): 1 µM

CN(C)C(=O)Sc1nc(-c2ccc(Cl)cc2)c(-c2ccccc2)[nH]1 [Compound T103, [4-(4-Chlorophenyl)-5-phenyl-1H-imidazol-2-yl]-N,N-dimethylcarbamic acid thioester]
IC50 (COX-1; [1]): 7.3 µM

CCN(CC)C(=O)Sc1nc(-c2ccc(Cl)cc2)c(-c2ccccc2)[nH]1 [Compound T104, [4-(4-Chlorophenyl)-5-phenyl-1H-imidazol-2-yl]-N,N-diethylcarbamic acid thioester]
IC50 (COX-1; [12]): 4.17 µM

O=C(NCCSc1nc(-c2ccc(Cl)cc2)c(-c2ccccc2)[nH]1)c1ccccc1 [Compound T106, N^1-{2-[4-(4-Chlorophenyl)-5-phenyl-1H-imidazol-2-ylsufanyl]ethyl}benzamide]
IC50 (COX-1; [10]): 0.9 µM

CCN(CC)C(=O)Sc1nc(-c2ccc(Cl)cc2)c(-c2ccc(OC)cc2)[nH]1 [Compound T108, [4-(4-Chlorophenyl)-5-(4-methoxyphenyl)-1H-imidazol-2-yl]-N N-diethyl-carbamic acid thioester]
IC50 (COX-1; [12]): 0.158 µM
IC50 (COX-2; [3]): 1 µM

COc1ccc(-c2[nH]c(SCCNC(=O)c3ccccc3)nc2-c2ccc(Cl)cc2)cc1 [Compound T110, N^1-{2-[4-(4-Chlorophenyl)-5-(4-methoxyphenv)-1H-imidazol-2-yl-sufanyl]ethyl}benzamide]
IC50 (COX-1; [11]): 3.31 µM
